The METLIN SMRT retention time set (Domingo-Almenara et al. 2019)

Assay: gradient 5% acetonitrile 3 min, to 50% in 2 min, to 85% in 15 min, held 3 min, 100 µL/min
Conditions: column: Zorbax Extend-C18 2.1 x 50 mm; eluents: water / acetonitrile, 0.1% formic acid
Method in brief: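 Retention times of pure standards were taken from adduct peaks that were selected by computer and manually inspected. Over 3 months, mixtures of ~100 molecules were run by HPLC–quadrupole time-of-flight mass spectrometry in positive and negative ionization mode. The Zorbax Extend-C18 column (2.1 × 50 mm, 1.8 μm) ran at 100 μL/min in water and acetonitrile, each containing 0.1% formic acid, with 40 μL dead volume and 900 μL dwell volume.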

SMILES	RP-LC retention time
Cc1cc(C)n(C(=O)COc2ccc(Cl)cc2C)n1	1160 s
Cn1c(C2CCN(C(=O)NCCc3ccccc3)CC2)cc(=O)n2nccc12	619 s
CCc1ccc(-c2noc(CN3C(=O)C(C)Oc4ccccc43)n2)cc1 (centres undefined)	1160 s
CCOC(=O)c1nc(N(C)c2cccc(Cl)c2)c2ccccc2n1	982 s
CNC(=O)[C@@H]1C[C@H](Oc2ccccc2)CN1S(=O)(=O)N(C)C	702 s
COc1ccc(-c2noc(C3CCCN3C(=O)Nc3cccc(Br)c3)n2)cc1 (centres undefined)	972 s
COc1cccc(NC(=O)Cn2c(=O)c3cc(C4CC4)nn3c3ncccc32)c1	763 s
O=C(Cn1c(=O)nc(NC2CCCC2)c2ccccc21)Nc1cc(F)cc(F)c1	767 s
CN(CCc1noc(C2CN(Cc3cccc(C(F)(F)F)c3)C2)n1)S(C)(=O)=O	643 s
O=C(NCCCN1CCCC1=O)C1=C2CCCN2c2ccc(F)cc2S1(=O)=O	650 s
Cc1ccc(NC(=O)C2CCN(S(=O)(=O)c3cn(C(C)C)cn3)CC2)c(Br)c1	838 s
COc1ccc(-c2noc(C3(NC(=O)c4ccc(C(F)(F)F)cc4)CCCCC3)n2)cc1	1260 s
COc1ccc(OC)c(NC(=O)CSc2ccc(N3CCCC(C(=O)NC4CC4)C3)nn2)c1 (centres undefined)	672 s
COc1ccc(-n2c(=O)c(C(=O)NCc3cc(F)cc(F)c3)c(O)c3cccnc32)cc1	1170 s
CCCn1cc(CCNS(=O)(=O)c2c(C)c(C)cc(C)c2C)c2cccnc21	1060 s
O=C(NCCC1=CCCCC1)C(=O)NCC1OCCCN1S(=O)(=O)c1ccccc1 (centres undefined)	911 s
Cc1ccc(N2C(=O)CN(S(C)(=O)=O)CC2(C)C(=O)NCc2ccc(F)cc2)cc1Cl (centres undefined)	877 s
CC(C)CNC(=O)N1CC(n2cc(C(=O)N(C)C)nn2)C1	609 s
COc1cccc(Cn2c(=O)c3sccc3n(Cc3nc(-c4ccccc4OC)no3)c2=O)c1	987 s
Cc1ccn(-c2ccc(C(=O)NC3CCCC3)cn2)n1	815 s
CCc1ccc2[nH]c3c(c(=O)c2c1)CN(CC(=O)NCc1ccc2c(c1)OCO2)CC3	624 s
CCCn1ccc2sc(C)c(C(=O)NCCN3CCCCCC3)c2c1=O	657 s
CCCc1noc(-c2ccc(-n3cnc(C(=O)NC4CCCC4)c3)nc2)n1	915 s

SMILES	RP-LC retention time
CCOCC(=O)N1C[C@@H]2CCCN3CCC[C@@H]([C@H]23)[C@H]1CCCC(=O)NCC1CC1	574 s
O=C(Cc1cccc(Cl)c1)N1[C@H]2CC[C@@H]1c1cnc(-c3ccccc3)nc1C2	990 s
O=C(Cn1c2ccccc2c2ncn(Cc3nc(C4CC4)no3)c(=O)c21)Nc1ccc2c(c1)OCCO2	808 s
COc1ccc(-c2nc(NC3CC3)c3ccccc3n2)cc1	706 s
O=C(NCCc1ccc(Cl)cc1)c1nnc(-c2ccc(S(=O)(=O)N3CCCC3)cc2)o1	1010 s
COc1ccc(-c2nnc(Cc3nc(-c4ccccc4F)no3)o2)cc1OC	848 s
CCOC(=O)c1[nH]c(C)c(CN(Cc2ccc(C)cc2)C(=O)COC)c1C	684 s
Cc1ccc(S(=O)(=O)N2CCCC(Cn3c(C)nc4cccnc43)C2)c(C)c1 (centres undefined)	747 s
CC1Oc2ccc(-c3csc(NC(=O)c4ccccc4Cl)n3)cc2N(C)C1=O (centres undefined)	968 s
COc1ccc(C)cc1NC(=O)Cc1csc2nc(-c3ccc(C)c(C)c3)cn12	930 s
CC(=O)NCC(=O)N1CCCn2cc(-c3ccc4c(c3)OCO4)nc21	487 s
O=C(CCc1ccccc1)NC1(c2nc(-c3ccncc3)no2)CCCCC1	902 s
COc1ccc(N2CCN(c3ccc4cc(S(=O)(=O)N5CCCC5)ccc4n3)CC2)cc1	855 s
Cc1ccc(NC(=O)NCCCn2c(C(F)(F)F)nc3cccnc32)cc1F	866 s
COc1ncc(C(=O)N2CCCC2)cn1	589 s
COc1ccc(-c2nc(-c3cn(-c4cccc(Cl)c4)nn3)no2)cc1	1100 s
O=S(=O)(c1ccc(Cl)cc1)N1CCC2(CC1)NCCN=C2NCc1ccccc1F	730 s
COc1ccc(NC(=O)N2CCC(n3c(-c4ccco4)nc4cccnc43)C2)cc1Cl (centres undefined)	753 s
O=C(NC1CC1)c1cc(-c2cccs2)on1	788 s
CCN1CCCn2cc(S(=O)(=O)NCc3ccccc3C(F)(F)F)cc2C1=O	792 s
CCOc1cccc(-c2noc(Cn3nc(-c4ccc5c(c4)OCO5)ccc3=O)n2)c1	1130 s
COc1ccc(CNC(=O)CN2CCc3[nH]c4c(C)cc(C)cc4c(=O)c3C2)cc1	629 s
Cc1nc(CCNS(=O)(=O)c2ccc(Cl)c(C)c2)no1	812 s

SMILES	RP-LC retention time
CCCn1nc2ccc(S(=O)(=O)N3CCOCC3)cn2c1=O	696 s
CCOC(=O)c1nc(NCC2CCN(Cc3ccccc3Cl)CC2)c2ccccc2n1	1060 s
CCCNC(=O)Cc1c(C)nc2nc(-c3ccc(C(C)(C)C)cc3)nn2c1C	920 s
Cc1ccc(CN2C[C@@H]3C(=O)N(Cc4ccc5c(c4)OCO5)C(=O)[C@@H]3C2)cc1C	691 s
COc1ccc(CCc2nc3nccc(-c4ccc5c(c4)OCCCO5)n3n2)cc1OC	874 s
Cc1cc2c(c(=O)n(-c3ccccc3)c(=O)n2CC(=O)Nc2cccc(Cl)c2)n1C	870 s
CN(C)S(=O)(=O)c1ccc(NC(=O)Cc2ccc(F)cc2)cc1	780 s
CC(C)OCCCNC(=O)C1CCCN(S(=O)(=O)c2ccc3c(ccn3C)c2)C1 (centres undefined)	720 s
Cc1ccc(-c2cn3c(CC(=O)NCC(C)c4ccccc4)csc3n2)cc1C (centres undefined)	930 s
CCOC(=O)c1c(C)oc2nc(C)nc(N3CCN(c4ccc(C(C)=O)cc4)CC3)c12	642 s
Fc1ccccc1-c1noc(N2CCCCC2)n1	982 s
CC(C)Cc1cc(-c2nnc3sc(-c4cccc(N(C)C)c4)nn23)n[nH]1	1020 s
Cn1c(SCC(=O)Nc2ncn[nH]2)nc2ccsc2c1=O	583 s
CC(C)c1ccc(NC(=O)C2CCCN(c3nc4ccccc4nc3C(F)(F)F)C2)cc1 (centres undefined)	957 s
CC(C)n1cc(S(=O)(=O)NCc2ccccc2C(F)(F)F)c2cccnc21	977 s
O=C(NCc1ccc(Cl)cc1)C1CCN(c2cnc3nccnc3c2)CC1	713 s
Cc1nc(-c2cn(Cc3cccc(F)c3)nn2)no1	748 s
O=C(NCc1nc2ccccc2[nH]1)c1ccc(OCC(=O)C2CC2)cc1	561 s
Cc1csc(-c2cc(S(=O)(=O)N3CCN(CC(C)C)CC3)cn2CC(=O)N2CCCCC2)n1	724 s
Cc1oc(-c2[nH]ncc2C(=O)N2CCOCC2)cc1S(=O)(=O)NC1CCCC1	645 s
CSc1ccc(CNC(=O)C2CCN(c3c(C#N)cnc4ccc(Cl)cc34)CC2)cc1	960 s
Cc1cncn(CC(=O)NCc2cccs2)c1=O	580 s
COC(=O)c1cccc(NC(=O)c2cnc3c(c2)c(=O)n(C)c(=O)n3-c2ccccc2)c1	874 s

SMILES	RP-LC retention time
O=c1oc2cc(O)cc(O)c2c2ccccc12	699 s
CC(C)N1C(=O)c2cccnc2Sc2cc(NC(=O)c3c(F)cccc3F)ccc21	865 s
CCn1ccc(C(=O)NCC2Cn3cccc3C(=O)N2CC(C)C)n1 (centres undefined)	680 s
CCOC(=O)C1CCN(C(=O)C2c3ccccc3C(=O)N(C)C2c2cccs2)CC1 (centres undefined)	810 s
O=C(C(=O)N1CCN(c2ccccn2)CC1)c1ccc[nH]1	556 s
CN1C(=O)C(CC(=O)NCc2nc3ccccc3n2C)=C2CCCCC21 (centres undefined)	600 s
CC(C)NC(=O)C1CCCN(S(=O)(=O)c2c[nH]c(C(=O)N3CCCCCC3)c2)C1 (centres undefined)	734 s
CCCCC(=O)Nc1ccc(OCc2cc(C(=O)NC3CC3)no2)cc1	798 s
O=C(c1csc(S(=O)(=O)N2CCC(C(=O)N3CCc4ccccc4C3)CC2)c1)N1CCCC1	817 s
CCCn1cnc2cc(CNC(=O)c3ccc(C(C)C)cc3)ccc21	690 s
Cc1noc(-c2ccnc(-n3cnc(C(=O)NC4CCCCC4)c3)c2)n1	776 s
CCN(CC)c1nc2ccsc2c(=O)n1CC(=O)NCc1ccc(F)cc1F	868 s
O=C(Nc1cccc(Cl)c1)Nc1nc(CC(=O)N2CCc3ccccc32)cs1	978 s
CC1CCN(C(=O)C2CCc3sc(C(=O)N4CCOCC4)cc3C2)CC1 (centres undefined)	776 s
Cc1ccccc1-n1c(=O)c2sccc2n(Cc2nc(-c3ccccc3)no2)c1=O	1000 s
CCC1CCCCN1CCNC(=O)CCc1cc2cc(OC)ccc2[nH]c1=O (centres undefined)	593 s
COc1cccc(-c2noc(C3CCCN3C(=O)Nc3cc(C)ccc3C)n2)c1 (centres undefined)	1020 s
COc1ccc(OC)c(S(=O)(=O)NCCc2ncc(C)n2C(C)C)c1	540 s
O=C(NC1CCCC1)N1CCN(Cc2nc3cc(C(=O)N4CCCCC4)ccc3o2)CC1	644 s
O=C(CSc1nc2ccccc2s1)OCc1cc(-c2ccco2)on1	1010 s
